Source: ChEMBL document CHEMBL4392845, “Structure-activity relationship study of estrogen receptor down-regulators with a diphenylmethane skeleton” (Bioorg Med Chem, 2019)

Experiments:
Estrogen receptor [1] = target: T1, Estrogen receptor (Homo sapiens, UniProt P03372)
T1 sequence (P03372 whole entry): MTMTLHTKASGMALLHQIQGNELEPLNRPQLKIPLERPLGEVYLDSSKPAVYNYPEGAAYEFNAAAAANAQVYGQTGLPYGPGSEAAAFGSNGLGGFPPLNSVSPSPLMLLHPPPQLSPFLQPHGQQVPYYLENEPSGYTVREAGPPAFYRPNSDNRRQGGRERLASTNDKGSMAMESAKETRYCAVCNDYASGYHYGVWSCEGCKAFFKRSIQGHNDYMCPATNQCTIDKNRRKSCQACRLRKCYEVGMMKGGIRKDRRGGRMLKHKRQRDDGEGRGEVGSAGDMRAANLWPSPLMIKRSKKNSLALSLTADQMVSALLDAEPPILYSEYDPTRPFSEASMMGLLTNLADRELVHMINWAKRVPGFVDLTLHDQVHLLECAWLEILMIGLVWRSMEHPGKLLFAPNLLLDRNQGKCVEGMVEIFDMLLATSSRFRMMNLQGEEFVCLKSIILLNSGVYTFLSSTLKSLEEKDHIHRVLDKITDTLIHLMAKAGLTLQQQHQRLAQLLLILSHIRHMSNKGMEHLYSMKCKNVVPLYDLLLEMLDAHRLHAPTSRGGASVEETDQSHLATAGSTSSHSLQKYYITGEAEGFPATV
Description: Binding affinity to GST-tagged human ER alpha ligand-binding domain by TR-FRET assay

Estrogen receptor [2] = target: T1, Estrogen receptor; remark: listed apart in the source
Description: Antagonist activity at FLAG-tagged ERalpha (unknown origin) expressed in HEK293 cells assessed as reduction in E2-induced ER-alpha-mediated transcriptional activity by luciferase reporter gene assay

Estrogen receptor [3] = target: T1, Estrogen receptor; remark: listed apart in the source
Description: (§1) Selective estrogen receptor down-regulator activity at FLAG-tagged ERalpha (unknown origin) expressed in HEK293 cells assessed as induction of ERalpha degradation by luciferase reporter gene assay

Estrogen receptor [4] = target: T1, Estrogen receptor; assay: Agonist activity at FLAG-tagged ERalpha (unknown origin) expressed in HEK293 cells assessed as induction of ER-alpha-mediated transcriptional activity by luciferase reporter gene assay; assay type: cell-based
Estrogen receptor [5] = target: T1, Estrogen receptor; details: hek293
Description: as §1

| SMILES | IC50 (Estrogen receptor [1]) [nM] | IC50 (Estrogen receptor [2]) [nM] | EC50 (Estrogen receptor [3]) [nM] | EC50 (Estrogen receptor [4]) [nM] | EC50 (Estrogen receptor [5]) |
| --- | --- | --- | --- | --- | --- |
| Oc1ccc(Cc2ccc(O)cc2)cc1 | 1430 | > 10000 | > 10000 |  |  |
| CCC(=C(c1ccc(O)cc1)c1ccc(O)cc1)c1ccccc1 | 0.06 | 3.3 | 1 |  |  |
| CCC(CC)(c1ccc(O)cc1)c1ccc(O)cc1 | 24 |  | 181 |  |  |
| Cc1cc(Cc2ccc(O)c(C)c2)ccc1O | 790 | > 10000 | > 10000 | > 10000 |  |
| CCC(CC)(c1ccc(O)c(C)c1)c1ccc(O)c(C)c1 | 1.4 |  | 28 |  |  |
| CCCC(CCC)(c1ccc(O)c(C)c1)c1ccc(O)c(C)c1 | 1.3 to 3.2 |  | 10 |  |  |
| CCCCC(CCCC)(c1ccc(O)c(C)c1)c1ccc(O)c(C)c1 | 26 |  | 88 |  |  |
| CCc1cc(C(CC)(CC)c2ccc(O)c(CC)c2)ccc1O | 280 |  | 729 |  |  |
| CCCC(CCC)(c1ccc(O)cc1)c1ccc(O)cc1 | 5.9 |  | 65 |  |  |
| CCCCC(CCCC)(c1ccc(O)cc1)c1ccc(O)cc1 | 100 |  | 606 |  |  |
| CCCC(CCC)(c1ccc(O)c(CC)c1)c1ccc(O)c(CC)c1 | 1280 |  | > 10000 |  |  |
| CCCC(CCC)(c1ccc(O)c(C)c1)c1ccc(OCCN(C)C)c(C)c1 | 52 | 36 |  |  | Not Active |
| CCCC(CCC)(c1ccc(O)c(C)c1)c1ccc(OCC(=O)OC(C)C)c(C)c1 | 90 | 99 | 116 |  |  |
| CCCC(CCC)(c1ccc(O)c(C)c1)c1ccc(N(C)C)c(C)c1 | 77 | 213 | 80 | 20 |  |
| CCCC(CCC)(c1ccc(O)c(C)c1)c1ccc(NC)c(C)c1 | 7.5 | 207 | 545 |  |  |
| CCCC(CCC)(c1ccc(O)c(C)c1)c1ccc(OCC(=O)N(C)C)c(C)c1 | 99 | 94 | 204 |  |  |
| CCCC(CCC)(c1ccc(N)c(C)c1)c1ccc(O)c(C)c1 | 1.7 | 8.1 | 9 | 1.3 |  |
| CCCC(CCC)(c1ccc(O)c(C)c1)c1ccc(OCCC(C)C)c(C)c1 | 160 | 1200 | 427 |  |  |
| CCCC(CCC)(c1ccc(O)c(C)c1)c1ccc(OCC(=O)NC)c(C)c1 | 43 | 31 | 104 |  |  |
| CCCC(CCC)(c1ccc(O)c(C)c1)c1ccc(OCC(=O)OCC)c(C)c1 | 22 | 44 | 93 |  |  |
| CCCC(CCC)(c1ccc(O)c(C)c1)c1ccc(NC(C)=O)c(C)c1 | 354 | 213 | > 10000 |  |  |
| CCCC(CCC)(c1ccc(O)c(C)c1)c1ccc(/C=C/C(=O)O)c(C)c1 | 37 | 522 | 437 |  |  |
| CCCC(CCC)(c1ccc(O)c(C)c1)c1ccc(/C=C/C(=O)OCC)c(C)c1 | 303 | 561 | 193 |  |  |
